This is an account of results in patent US4734418A, “Quinazoline compounds and antihypertensives” (priority 1984, dated 1988).

The subject of the series is Spontaneously Hypertensive Rats. The experiment in a line: Test 1: antihypertensive effects (systolic tail artery blood pressure) and heart rate in spontaneously hypertensive rats, oral. It is filed as in vivo, rat (male, SHR). As to conditions: SHR, oral 1 mg/Kg; for change in vivo at 1 mg/kg: Rattus norvegicus; for Change (%) in heart rate: maximum value. The procedure: The antihypertensive effects of the certain compounds of this invention were studied in the following manner.
Among male, spontaneously hypertensive rats (SHRs) of 20 weeks of age or older and 350-430 g heavy all of which had developed hypertension, those having systolic blood pressures of 180 mmHg or higher were used in groups, each of which was constituted of 3-4 of the rats. […] Besides, heart rates were also measured simultaneously. The compounds were each dissolved or suspended in a 0.5% methylcellulose solution and then administered orally.
*All administered orally at a dosage of 1 mg/Kg except for the compounds
**Each percent change in heart rate is indicated by the corresponding

Where [1] appears, read: 1 hour, read-out: Antihypertensive effects, change (%) in blood pressure, 1 hour later.
Setting [2] is: 3 hours, read-out: Antihypertensive effects, change (%) in blood pressure, 3 hours later.
[3] abbreviates: 6 hours, read-out: Antihypertensive effects, change (%) in blood pressure, 6 hours later.
Setting [4] is: 24 hours, read-out: Antihypertensive effects, change (%) in blood pressure, 24 hours later.

Where two headings read alike, the source gives them in different places.

On to `COc1cc2nc(N3CCN(c4ncc5c(=O)[nH]ccc5n4)CC3)nc(N)c2cc1OC` [Example 3], for which the “Change (%) in heart rate” value was “+7.1%”. The change in vivo at 1 mg/kg under setting [1] was -2.5%. Under setting [2], the change in vivo at 1 mg/kg was -8%. Moreover, under setting [3], the change in vivo at 1 mg/kg is -15.1%. Moreover, under setting [4], the change in vivo at 1 mg/kg was -5%.
For `CCCn1ccc2nc(N3CCN(c4nc(N)c5cc(OC)c(OC)cc5n4)CC3)ncc2c1=O` [Example 5], in that order: “+2.6%”, 0%, -6.3%, -13.2% and -6.3%.
For `COc1cc2nc(N3CCN(c4ncc5c(=O)n(C(C)C)ccc5n4)CC3)nc(N)c2cc1OC` [Example 6], in that order: “+5.1%”, -1.5%, -13.8%, -16.7% and -9.9%.
For `COc1cc2nc(N3CCN(c4ncc5c(=O)n(CCO)ccc5n4)CC3)nc(N)c2cc1OC` [Example 7], the “Change (%) in heart rate” value is listed as “+2.8%”. In addition, the change in vivo at 1 mg/kg under setting [1] was determined as 1.5%. The change in vivo at 1 mg/kg under setting [2] was -4.4%. Further, under setting [3], the change in vivo at 1 mg/kg was -9.3%. Further, the change in vivo at 1 mg/kg under setting [4] was -2.9%.
The corresponding values for `COCCn1ccc2nc(N3CCN(c4nc(N)c5cc(OC)c(OC)cc5n4)CC3)ncc2c1=O` [Example 8] are “+5.2%”, -0.5%, -9.5%, -11.4% and -4%.
For `COc1cc2nc(N3CCN(c4ncc5c(=O)n(-c6ccccc6)ccc5n4)CC3)nc(N)c2cc1OC` [Example 9], in that order: “+4.3%”, -1.5%, -8.1%, -9.6% and -5.1%.
The corresponding values for `COc1cc2nc(N3CCN(c4ncc5c(=O)n(Cc6ccccc6)ccc5n4)CC3)nc(N)c2cc1OC` [Example 10] are “+5.2%”, 1.5%, -14.4%, -11.9% and -5%.
`COc1cc2nc(N3CCN(c4ncc5c(=O)n(C6CC6)ccc5n4)CC3)nc(N)c2cc1OC` [Example 11]: the “Change (%) in heart rate” value was “+5.7%”. Besides, under setting [1], the change in vivo at 1 mg/kg was -0.5%. For the same compound, the change in vivo at 1 mg/kg under setting [2] is -16.6%. The change in vivo at 1 mg/kg under setting [3] was -17.1%. Also, the change in vivo at 1 mg/kg under setting [4] was -6.8%.
Regarding `CCn1cc(C)c2nc(N3CCN(c4nc(N)c5cc(OC)c(OC)cc5n4)CC3)ncc2c1=O` [Example 12], the “Change (%) in heart rate” value is “+7.0%”. Further, under setting [1], the change in vivo at 1 mg/kg was -11%. The change in vivo at 1 mg/kg under setting [2] is -14.3%. The change in vivo at 1 mg/kg under setting [3] is -19%. The change in vivo at 1 mg/kg under setting [4] is -6.7%.
In the case of `CCn1cc(C#N)c2nc(N3CCN(c4nc(N)c5cc(OC)c(OC)cc5n4)CC3)ncc2c1=O` [Example 13], the “Change (%) in heart rate” value is “+7.4%”. Moreover, under setting [1], the change in vivo at 1 mg/kg is -1%. The change in vivo at 1 mg/kg under setting [2] was -3.9%. Besides, the change in vivo at 1 mg/kg under setting [4] was -3.9%.
As to `CCn1cc(C=O)c2nc(N3CCN(c4nc(N)c5cc(OC)c(OC)cc5n4)CC3)ncc2c1=O` [Example 14], the “Change (%) in heart rate” value is reported as “+7.3%”. In addition, under setting [1], the change in vivo at 1 mg/kg was -1.9%. Also, the change in vivo at 1 mg/kg under setting [2] was -4.8%. For the same compound, the change in vivo at 1 mg/kg under setting [3] is -13.9%. The change in vivo at 1 mg/kg under setting [4] is -11%.
The corresponding values for `CCn1cc(Cc2ccccc2)c2nc(N3CCN(c4nc(N)c5cc(OC)c(OC)cc5n4)CC3)ncc2c1=O` [Example 15] are “+3.7%”, -2.9%, -7.7%, -12% and -7.7%.
With `CCn1ccc2nc(N3CCN(c4nc(N)c5cc(OC)c(OC)cc5n4)CC3)ncc2c1=S` [Example 16], the “Change (%) in heart rate” value is on record as “+7.5%”. For the same compound, the change in vivo at 1 mg/kg under setting [1] is -2%. In addition, the change in vivo at 1 mg/kg under setting [2] was -8.9%. The change in vivo at 1 mg/kg under setting [3] is -15.3%. In addition, under setting [4], the change in vivo at 1 mg/kg was -8.9%.
For the compound `CCOC(=O)c1cc2nc(N3CCN(c4nc(N)c5cc(OC)c(OC)cc5n4)CC3)ncc2c(=O)n1CC` [Example 18], the “Change (%) in heart rate” value is reported as “+11.1%”. The change in vivo at 1 mg/kg under setting [1] came out at 0%. Moreover, the change in vivo at 1 mg/kg under setting [2] was -3.9%. Moreover, under setting [3], the change in vivo at 1 mg/kg is -9.8%. Also, under setting [4], the change in vivo at 1 mg/kg is -3.9%.
Consider `COc1cc2nc(N3CCN(c4ncc5c(n4)CC(c4ccccc4)NC5=O)CC3)nc(N)c2cc1OC` (stereo not drawn) [Example 19], for which the “Change (%) in heart rate” value was “+2.9%”. Further, the change in vivo at 1 mg/kg under setting [1] is -2.4%. For the same compound, the change in vivo at 1 mg/kg under setting [2] was -10.1%. Further, under setting [3], the change in vivo at 1 mg/kg is -11.1%. Moreover, the change in vivo at 1 mg/kg under setting [4] is -2.9%.
The corresponding values for `CCn1ccc(=O)c2cnc(N3CCN(c4nc(N)c5cc(OC)c(OC)cc5n4)CC3)nc21` [Example 20] are “+5.7%”, 1.5%, -12.5%, -12% and -2%.
As for `CCCN1Cc2nc(N3CCN(c4nc(N)c5cc(OC)c(OC)cc5n4)CC3)ncc2C1=O` [Example 26], the “Change (%) in heart rate” value is “+9.8%”. In addition, the change in vivo at 1 mg/kg under setting [1] is -8.8%. The change in vivo at 1 mg/kg under setting [2] is -15.2%. The change in vivo at 1 mg/kg under setting [3] was -21.6%. The change in vivo at 1 mg/kg under setting [4] is -4.9%.
The corresponding values for `CCCCN1Cc2nc(N3CCN(c4nc(N)c5cc(OC)c(OC)cc5n4)CC3)ncc2C1=O` [Example 27] are “+8.3%”, -5.4%, -17.6%, -21% and -2.4%.
`COc1cc2nc(N3CCN(c4ncc5c(n4)CCCC(=O)N5)CC3)nc(N)c2cc1OC` [Example 31]: the change in vivo at 1 mg/kg is -2.8% under setting [1], -8.5% under setting [2], -17.8% under setting [3] and -3.8% under setting [4].
Consider `COc1cc2nc(N3CCN(c4ncc5c(n4)CCCC5=O)CC3)nc(N)c2cc1OC` [Example 33], for which the “Change (%) in heart rate” value is listed as “+17.5%”. In addition, the change in vivo at 1 mg/kg under setting [1] is -20.4%. Under setting [2], the change in vivo at 1 mg/kg was -27%. Moreover, the change in vivo at 1 mg/kg under setting [3] was -32.1%. In addition, the change in vivo at 1 mg/kg under setting [4] is -9.7%.
The corresponding values for `COc1cc2nc(N3CCN(C4=NCc5c(ccn(C)c5=O)N4)CC3)nc(N)c2cc1OC` [Example 34] are “+2.3%”, 0.5%, -9.1%, -13.9% and -7.2%.
The corresponding values for `CCn1ccc2c(c1=O)CN=C(N1CCN(c3nc(N)c4cc(OC)c(OC)cc4n3)CC1)N2` [Example 35] are “+9.1%”, -0.5%, -8.7%, -16.3% and -15.9%.
For `COc1cc2nc(N3CCN(c4ncc(C(C)=O)c(C)n4)CC3)nc(N)c2cc1OC` [Example 36], in that order: “+9.5%”, -14.6%, -16.5%, -15% and -2.4%.
With `CCNC(=O)c1cnc(N2CCN(c3nc(N)c4cc(OC)c(OC)cc4n3)CC2)nc1` [Example 37], the “Change (%) in heart rate” value is listed as “+5.8%”. Also, under setting [1], the change in vivo at 1 mg/kg is -4.7%. In addition, the change in vivo at 1 mg/kg under setting [2] was -16.4%. Moreover, the change in vivo at 1 mg/kg under setting [3] is -21.1%. Also, under setting [4], the change in vivo at 1 mg/kg is -8.5%.
For `CCNC(=O)c1cnc(N2CCN(c3nc(N)c4cc(OC)c(OC)cc4n3)CC2)nc1CC` [Example 38], in that order: “+7.9%”, -26.6%, -24.1%, -27.6% and -7.9%.
For `COc1cc2nc(N3CCN(c4ncc(C(N)=O)c(C)n4)CC3)nc(N)c2cc1OC` [Example 40], in that order: “+5.8%”, -1.4%, -15.9%, -18.4% and -8.2%.
The corresponding values for `CCNC(=O)c1cnc(N2CCN(c3nc(N)c4cc(OC)c(OC)cc4n3)CC2)nc1C` [Example 41] are “+9.2%”, -11.2%, -19.5%, -25.9% and -3.9%.
Turning to `CCN(CC)C(=O)c1cnc(N2CCN(c3nc(N)c4cc(OC)c(OC)cc4n3)CC2)nc1C` [Example 42], the “Change (%) in heart rate” value is on record as “+5.2%”. For the same compound, the change in vivo at 1 mg/kg under setting [1] is -16.5%. Moreover, the change in vivo at 1 mg/kg under setting [2] was -19.5%. Under setting [3], the change in vivo at 1 mg/kg was -24%. Besides, the change in vivo at 1 mg/kg under setting [4] is -7.5%.
